Measured values: ChEMBL document CHEMBL2346515, “Discovery of 4-alkylamino-7-aryl-3-cyanoquinoline LRRK2 kinase inhibitors” (Bioorg Med Chem Lett, 2013)

How the values were obtained:
[1] = target: T1, Serine/threonine-protein kinase Chk1 (Homo sapiens) (UniProt O14757); assay: Inhibition of CHK1 (unknown origin) at 10 uM by single point assay
T1 sequence (whole entry): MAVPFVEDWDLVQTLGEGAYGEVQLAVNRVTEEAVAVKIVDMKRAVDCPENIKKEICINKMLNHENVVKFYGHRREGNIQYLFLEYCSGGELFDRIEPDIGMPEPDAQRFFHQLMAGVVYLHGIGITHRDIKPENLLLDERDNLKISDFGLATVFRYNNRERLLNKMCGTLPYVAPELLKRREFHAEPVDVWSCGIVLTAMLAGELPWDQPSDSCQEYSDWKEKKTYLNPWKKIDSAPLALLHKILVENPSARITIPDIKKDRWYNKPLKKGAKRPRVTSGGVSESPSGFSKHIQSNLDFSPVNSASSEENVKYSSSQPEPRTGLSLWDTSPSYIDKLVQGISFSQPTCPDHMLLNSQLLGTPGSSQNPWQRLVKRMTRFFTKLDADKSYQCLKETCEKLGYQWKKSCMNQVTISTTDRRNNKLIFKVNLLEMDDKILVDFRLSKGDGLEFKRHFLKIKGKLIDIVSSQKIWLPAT

[2] = target: Leucine-rich repeat serine/threonine-protein kinase 2 (Homo sapiens, UniProt Q5S007); details: 10 uM
Sequence of Leucine-rich repeat serine/threonine-protein kinase 2 (Q5S007 whole entry): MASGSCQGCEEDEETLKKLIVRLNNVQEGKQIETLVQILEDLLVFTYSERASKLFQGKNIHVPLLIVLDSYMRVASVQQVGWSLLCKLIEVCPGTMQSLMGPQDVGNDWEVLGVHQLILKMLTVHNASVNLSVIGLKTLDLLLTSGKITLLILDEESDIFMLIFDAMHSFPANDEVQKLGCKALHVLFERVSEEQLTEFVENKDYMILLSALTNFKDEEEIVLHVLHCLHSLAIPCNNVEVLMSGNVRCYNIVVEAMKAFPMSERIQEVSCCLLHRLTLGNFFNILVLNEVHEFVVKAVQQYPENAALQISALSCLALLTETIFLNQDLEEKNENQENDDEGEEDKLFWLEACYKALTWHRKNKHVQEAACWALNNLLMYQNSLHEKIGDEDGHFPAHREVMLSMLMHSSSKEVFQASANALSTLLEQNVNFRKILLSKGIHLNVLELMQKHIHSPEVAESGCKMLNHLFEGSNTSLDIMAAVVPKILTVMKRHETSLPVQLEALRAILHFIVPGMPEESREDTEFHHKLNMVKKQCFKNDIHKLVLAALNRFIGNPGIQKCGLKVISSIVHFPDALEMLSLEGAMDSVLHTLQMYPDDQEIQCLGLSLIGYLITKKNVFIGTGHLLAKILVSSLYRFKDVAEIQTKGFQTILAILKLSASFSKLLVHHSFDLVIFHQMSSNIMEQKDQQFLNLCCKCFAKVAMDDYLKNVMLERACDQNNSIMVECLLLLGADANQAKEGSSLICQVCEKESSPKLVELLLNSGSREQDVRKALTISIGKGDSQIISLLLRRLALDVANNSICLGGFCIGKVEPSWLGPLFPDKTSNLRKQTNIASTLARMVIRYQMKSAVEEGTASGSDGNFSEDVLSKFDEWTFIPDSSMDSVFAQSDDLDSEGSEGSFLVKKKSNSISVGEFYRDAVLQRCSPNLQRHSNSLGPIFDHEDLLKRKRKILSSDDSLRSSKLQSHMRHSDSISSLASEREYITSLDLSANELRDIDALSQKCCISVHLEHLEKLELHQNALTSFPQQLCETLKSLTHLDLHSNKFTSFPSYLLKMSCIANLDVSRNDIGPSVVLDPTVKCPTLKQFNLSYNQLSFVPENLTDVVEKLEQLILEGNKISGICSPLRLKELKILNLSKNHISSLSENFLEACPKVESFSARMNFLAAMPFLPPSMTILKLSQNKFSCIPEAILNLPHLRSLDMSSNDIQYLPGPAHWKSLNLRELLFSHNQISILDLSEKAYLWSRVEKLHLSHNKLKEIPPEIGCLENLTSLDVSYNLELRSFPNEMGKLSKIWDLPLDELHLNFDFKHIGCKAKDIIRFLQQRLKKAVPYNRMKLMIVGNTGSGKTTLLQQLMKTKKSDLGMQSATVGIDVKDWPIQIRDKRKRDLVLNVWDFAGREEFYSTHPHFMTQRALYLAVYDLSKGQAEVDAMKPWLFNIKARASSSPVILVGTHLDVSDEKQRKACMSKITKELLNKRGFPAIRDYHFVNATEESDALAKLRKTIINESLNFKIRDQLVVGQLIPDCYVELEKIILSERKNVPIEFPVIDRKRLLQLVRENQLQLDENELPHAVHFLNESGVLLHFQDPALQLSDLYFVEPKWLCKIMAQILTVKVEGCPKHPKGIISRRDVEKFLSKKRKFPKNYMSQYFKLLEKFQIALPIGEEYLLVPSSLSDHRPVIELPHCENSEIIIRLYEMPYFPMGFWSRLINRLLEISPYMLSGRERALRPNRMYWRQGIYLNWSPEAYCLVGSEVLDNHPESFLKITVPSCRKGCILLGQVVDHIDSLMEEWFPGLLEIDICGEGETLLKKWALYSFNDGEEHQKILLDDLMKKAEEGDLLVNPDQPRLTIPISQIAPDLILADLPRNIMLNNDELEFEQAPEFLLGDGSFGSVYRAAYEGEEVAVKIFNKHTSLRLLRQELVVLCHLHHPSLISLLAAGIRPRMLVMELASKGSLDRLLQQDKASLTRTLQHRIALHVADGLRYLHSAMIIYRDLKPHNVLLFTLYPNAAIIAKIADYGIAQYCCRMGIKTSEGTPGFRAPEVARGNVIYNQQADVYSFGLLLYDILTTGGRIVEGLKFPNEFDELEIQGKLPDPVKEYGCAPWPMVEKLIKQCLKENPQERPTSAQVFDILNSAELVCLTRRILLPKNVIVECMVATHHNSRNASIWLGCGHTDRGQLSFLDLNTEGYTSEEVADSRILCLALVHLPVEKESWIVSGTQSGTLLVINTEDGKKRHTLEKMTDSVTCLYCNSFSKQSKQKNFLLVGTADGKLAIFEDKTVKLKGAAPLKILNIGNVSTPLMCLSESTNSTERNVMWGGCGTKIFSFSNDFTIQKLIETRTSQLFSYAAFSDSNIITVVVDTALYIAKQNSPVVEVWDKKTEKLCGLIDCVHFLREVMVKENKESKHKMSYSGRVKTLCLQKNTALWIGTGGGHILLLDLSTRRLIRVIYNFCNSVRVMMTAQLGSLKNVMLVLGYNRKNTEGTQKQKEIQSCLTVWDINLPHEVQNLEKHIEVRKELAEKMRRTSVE
Description: Inhibition of LRRK2 (unknown origin) at 10 uM by single point assay

[3] = target: RAC-alpha serine/threonine-protein kinase (Homo sapiens) (UniProt P31749); assay: Inhibition of AKT1 (unknown origin) at 10 uM by single point assay
Sequence of RAC-alpha serine/threonine-protein kinase (Homo sapiens) (P31749 whole entry): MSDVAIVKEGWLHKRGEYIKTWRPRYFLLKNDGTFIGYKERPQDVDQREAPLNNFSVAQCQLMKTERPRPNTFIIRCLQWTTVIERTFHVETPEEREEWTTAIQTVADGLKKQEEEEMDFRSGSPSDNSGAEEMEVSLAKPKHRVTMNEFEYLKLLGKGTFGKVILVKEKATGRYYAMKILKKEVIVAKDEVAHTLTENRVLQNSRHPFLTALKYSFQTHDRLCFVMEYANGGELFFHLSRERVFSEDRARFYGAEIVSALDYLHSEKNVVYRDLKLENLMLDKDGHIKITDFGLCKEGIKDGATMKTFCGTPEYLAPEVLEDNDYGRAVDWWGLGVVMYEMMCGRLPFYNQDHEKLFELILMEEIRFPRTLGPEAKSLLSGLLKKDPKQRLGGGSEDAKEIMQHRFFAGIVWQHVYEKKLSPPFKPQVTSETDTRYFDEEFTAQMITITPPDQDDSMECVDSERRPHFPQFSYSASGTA

[4] = target: Cyclin-dependent kinase 1/cyclin B1 (Homo sapiens) (UniProt P06493+P14635); assay: Inhibition of CDK1/cyclin B (unknown origin) at 10 uM by single point assay; type: protein-complex assay
Sequence of Cyclin-dependent kinase 1/cyclin B1 (Homo sapiens) (P06493 whole entry, looked up): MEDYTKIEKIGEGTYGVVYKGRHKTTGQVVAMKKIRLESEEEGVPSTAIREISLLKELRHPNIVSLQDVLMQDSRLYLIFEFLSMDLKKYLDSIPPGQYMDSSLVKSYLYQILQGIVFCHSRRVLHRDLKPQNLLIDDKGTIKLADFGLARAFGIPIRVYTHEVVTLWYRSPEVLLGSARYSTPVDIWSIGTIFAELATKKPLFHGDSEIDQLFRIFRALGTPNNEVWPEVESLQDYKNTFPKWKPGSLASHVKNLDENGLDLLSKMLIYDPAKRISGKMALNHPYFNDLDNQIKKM
Sequence of Cyclin-dependent kinase 1/cyclin B1 (Homo sapiens) (P14635 whole entry, looked up): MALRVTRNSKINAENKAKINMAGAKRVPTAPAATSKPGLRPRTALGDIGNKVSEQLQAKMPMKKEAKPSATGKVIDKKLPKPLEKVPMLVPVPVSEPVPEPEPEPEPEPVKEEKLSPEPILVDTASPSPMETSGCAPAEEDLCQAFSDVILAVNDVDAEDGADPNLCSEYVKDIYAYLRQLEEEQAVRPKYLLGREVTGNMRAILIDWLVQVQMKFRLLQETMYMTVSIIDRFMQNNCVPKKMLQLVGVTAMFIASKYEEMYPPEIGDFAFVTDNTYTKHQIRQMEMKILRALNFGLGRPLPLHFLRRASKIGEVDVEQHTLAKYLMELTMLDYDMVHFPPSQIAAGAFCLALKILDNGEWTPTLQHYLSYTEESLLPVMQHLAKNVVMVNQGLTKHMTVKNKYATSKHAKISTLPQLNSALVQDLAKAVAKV

[5] = target: Insulin receptor (Homo sapiens) (UniProt P06213); assay: Inhibition of INSR (unknown origin) at 10 uM by single point assay
[6] = target: Serine/threonine-protein kinase PAK 4 (Homo sapiens) (UniProt O96013); assay: Inhibition of PAK4 (unknown origin) at 10 uM by single point assay
Sequence of Serine/threonine-protein kinase PAK 4 (Homo sapiens) (O96013 whole entry, looked up): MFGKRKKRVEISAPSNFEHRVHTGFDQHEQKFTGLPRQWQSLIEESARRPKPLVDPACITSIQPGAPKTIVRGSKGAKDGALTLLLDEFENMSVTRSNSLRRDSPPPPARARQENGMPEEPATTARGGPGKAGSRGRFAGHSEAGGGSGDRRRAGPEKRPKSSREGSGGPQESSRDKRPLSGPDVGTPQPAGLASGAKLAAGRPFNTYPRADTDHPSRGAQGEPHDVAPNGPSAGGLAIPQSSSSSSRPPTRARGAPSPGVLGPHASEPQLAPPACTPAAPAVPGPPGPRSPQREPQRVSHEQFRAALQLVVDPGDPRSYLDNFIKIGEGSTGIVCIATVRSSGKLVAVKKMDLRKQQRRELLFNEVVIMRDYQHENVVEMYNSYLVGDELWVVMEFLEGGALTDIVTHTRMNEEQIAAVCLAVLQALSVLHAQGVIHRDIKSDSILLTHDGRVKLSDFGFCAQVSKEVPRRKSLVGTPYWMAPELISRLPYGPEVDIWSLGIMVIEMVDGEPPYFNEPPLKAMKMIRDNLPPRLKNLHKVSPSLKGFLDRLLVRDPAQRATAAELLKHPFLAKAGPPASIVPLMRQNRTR

[7] = target: Platelet-derived growth factor receptor alpha (Homo sapiens) (UniProt P16234); assay: Inhibition of PDGFRalpha (unknown origin) at 10 uM by single point assay

- inhibition [1]: 31%
- inhibition [2]: 81%
- inhibition [3]: -2%
- inhibition [4]: 12%
- inhibition [5]: 0%
- inhibition [6]: 19%
- inhibition [7]: 5%
Compound: C[C@@H](Nc1c(C#N)cnc2cc(-c3ccc(-n4ccoc4=O)cc3)ccc12)C1CC1
